From ChEMBL document CHEMBL1136305, “Structure-activity relationships within a series of caspase inhibitors: effect of leaving group modifications” (Bioorg Med Chem Lett, 2003)

How the values were obtained:
[1] = target: T1, Caspase-3 (Homo sapiens) (UniProt P42574); experiment: Inhibitory activity against caspase-3 (Csp-3)
T1 sequence (whole entry): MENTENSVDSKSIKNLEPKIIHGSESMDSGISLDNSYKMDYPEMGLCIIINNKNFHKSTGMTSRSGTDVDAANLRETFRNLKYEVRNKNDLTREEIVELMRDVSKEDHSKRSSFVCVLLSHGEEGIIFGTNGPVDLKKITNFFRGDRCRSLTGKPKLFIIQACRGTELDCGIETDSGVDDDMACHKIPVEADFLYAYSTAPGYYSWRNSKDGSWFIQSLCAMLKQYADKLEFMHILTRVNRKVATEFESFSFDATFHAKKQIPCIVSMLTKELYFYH

[2] = species on record: Homo sapiens; experiment: Cellular assay in an inflammation model measuring IL1-beta secretion from isolated human monocytes induced with Staph A; type: functional
[3] = target: T2, Caspase-1 (Mus musculus) (UniProt P29452); experiment: Inhibitory activity against murine caspase-1
T2 sequence (whole entry): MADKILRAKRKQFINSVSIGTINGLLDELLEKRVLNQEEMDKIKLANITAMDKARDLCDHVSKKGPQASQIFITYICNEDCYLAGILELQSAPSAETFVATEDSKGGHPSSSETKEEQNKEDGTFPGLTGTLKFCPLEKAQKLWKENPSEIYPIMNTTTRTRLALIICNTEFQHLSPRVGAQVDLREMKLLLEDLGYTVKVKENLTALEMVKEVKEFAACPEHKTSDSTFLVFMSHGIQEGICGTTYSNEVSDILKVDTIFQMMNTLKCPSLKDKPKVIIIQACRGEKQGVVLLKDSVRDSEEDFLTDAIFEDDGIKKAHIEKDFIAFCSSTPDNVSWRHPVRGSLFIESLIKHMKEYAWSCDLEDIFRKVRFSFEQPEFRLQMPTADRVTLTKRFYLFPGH

[4] = target: Caspase-8 (Homo sapiens) (UniProt Q14790); experiment: Inhibitory activity against caspase-8 (Csp-8)
[5] = (§1) Cellular assay in a model of neuronal apoptosis involving cortical neurons exposed to concanavalin A; type: functional
[6] = test system: Jurkat; experiment: Cellular assay in a Fas-induced model of apoptosis in Jurkat cells; type: functional, cell-based; details: Homo sapiens
[7] = target: T3, Caspase-6 (Homo sapiens) (UniProt P55212); experiment: Inhibitory activity against caspase-6 (Csp-6)
T3 sequence (whole entry): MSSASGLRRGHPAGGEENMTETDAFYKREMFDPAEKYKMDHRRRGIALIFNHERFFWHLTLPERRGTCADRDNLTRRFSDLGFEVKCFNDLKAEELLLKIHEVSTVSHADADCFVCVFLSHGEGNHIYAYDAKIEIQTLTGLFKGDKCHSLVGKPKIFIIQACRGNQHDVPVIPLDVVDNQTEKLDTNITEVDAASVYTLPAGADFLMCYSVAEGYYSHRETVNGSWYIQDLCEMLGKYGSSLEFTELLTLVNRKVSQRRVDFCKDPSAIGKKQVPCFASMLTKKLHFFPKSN

[8] = target: T4, Caspase-3 (Homo sapiens, UniProt P42574); experiment: Binding affinity against caspase-3 (Csp-3)
T4 sequence (P42574 whole entry): T1 sequence (whole entry)

[9] = target: T5, Caspase-1 (Mus musculus, UniProt P29452); experiment: Binding affinity against Murine caspase-1 (mCsp-1)
T5 sequence (P29452 whole entry): T2 sequence (whole entry)

[10] = target: T3, Caspase-6 (Homo sapiens); experiment: Inhibitory activity against Caspase-6 (Csp-6); type: functional
[11] = as §1; type: functional; remark: listed apart in the source

Sequence of Caspase-8 (Homo sapiens) (Q14790 217-374 limits assumed): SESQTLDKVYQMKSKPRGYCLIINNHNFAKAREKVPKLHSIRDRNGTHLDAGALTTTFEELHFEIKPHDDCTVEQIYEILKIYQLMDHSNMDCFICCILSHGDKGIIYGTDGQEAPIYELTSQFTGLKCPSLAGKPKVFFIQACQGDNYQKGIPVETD
Sequence of Caspase-8 (Homo sapiens) (Q14790 385-479 limits assumed): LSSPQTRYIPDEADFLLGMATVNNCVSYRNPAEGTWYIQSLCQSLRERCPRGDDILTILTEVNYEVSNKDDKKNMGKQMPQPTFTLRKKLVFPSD

| k3/Ki [1] [M⁻¹ s⁻¹] | IC50 [2] [µM] | k3/Ki [3] [M⁻¹ s⁻¹] | k3/Ki [4] [M⁻¹ s⁻¹] | IC50 [5] [µM] | IC50 [6] [µM] | k3/Ki [7] [M⁻¹ s⁻¹] | Ki [8] [µM] | Ki [9] [µM] | k3/Ki [10] [M⁻¹ s⁻¹] | IC50 [11] [µM] | Structure (SMILES) |
| --- | --- | --- | --- | --- | --- | --- | --- | --- | --- | --- | --- |
| 114000 | 14.9 | 20700 | 9080 | 2.35 | 6.84 | 5140 | – | – | – | – | CC(C)[C@H](NC(=O)COc1cccc2ccccc12)C(=O)N[C@@H](CC(=O)O)C(=O)COc1c(F)cc(F)cc1F |
| 1.96e+06 | 19 | 354000 | – | 2.65 | > 100 | – | 0.0071 | 0.07 | – | – | CC(C)[C@H](NC(=O)COc1cccc2ccccc12)C(=O)N[C@@H](CC(=O)O)C(=O)COc1cccc2ccccc12 |
| 9990 | 38.7 | 1550 | 1310 | > 50 | 87.9 | 270 | 0.1 | 2.68 | – | – | CC(C)[C@H](NC(=O)COc1cccc2ccccc12)C(=O)N[C@@H](CC(=O)O)C(=O)COc1ccc(-c2ccccc2)cc1 |
| 20000 | 17.3 | 5630 | 75 | > 50 | > 100 | 494 | – | – | – | – | CC(C)[C@H](NC(=O)COc1cccc2ccccc12)C(=O)N[C@@H](CC(=O)O)C(=O)COc1ccccc1C(F)(F)F |
| 60100 | 11.2 | 14700 | 1470 | 3.75 | 30 | 1510 | – | – | – | – | CC(C)[C@H](NC(=O)COc1cccc2ccccc12)C(=O)N[C@@H](CC(=O)O)C(=O)COc1cc(F)cc(F)c1F |
| 24400 | 16.7 | 11400 | 668 | 4.16 | 39.3 | 634 | – | – | – | – | CC(C)[C@H](NC(=O)COc1cccc2ccccc12)C(=O)N[C@@H](CC(=O)O)C(=O)COc1cc(F)c(F)cc1F |
| 8400 | 22.8 | 6130 | 137 | 13.5 | > 100 | 117 | – | – | – | – | CC(C)[C@H](NC(=O)COc1cccc2ccccc12)C(=O)N[C@@H](CC(=O)O)C(=O)COc1ccc([N+](=O)[O-])cc1 |
| 7520 | 15.9 | 263 | – | > 50 | > 100 | – | 0.09 | 3.17 | – | – | CC(C)[C@H](NC(=O)COc1cccc2ccccc12)C(=O)N[C@@H](CC(=O)O)C(=O)COc1ccc2ccccc2c1 |
| 73000 | 27.7 | 23500 | 1810 | 5.85 | > 100 | 10700 | – | – | – | – | CC(C)[C@H](NC(=O)COc1cccc2ccccc12)C(=O)N[C@@H](CC(=O)O)C(=O)COc1ccccc1[N+](=O)[O-] |
| 36500 | 15.8 | 12300 | 1850 | 6.2 | 30.3 | 1770 | – | – | – | – | CC(C)[C@H](NC(=O)COc1cccc2ccccc12)C(=O)N[C@@H](CC(=O)O)C(=O)COc1ccc([N+](=O)[O-])cc1F |
| 33900 | 18.2 | 7220 | 1030 | 3.7 | 50.4 | 683 | – | – | – | – | CC(C)[C@H](NC(=O)COc1cccc2ccccc12)C(=O)N[C@@H](CC(=O)O)C(=O)COc1cccc(C(F)(F)F)c1F |
| 13200 | 12.3 | 2580 | 196 | > 50 | > 100 | 77 | – | – | – | – | CC(C)[C@H](NC(=O)COc1cccc2ccccc12)C(=O)N[C@@H](CC(=O)O)C(=O)COc1ccc(C(F)(F)F)cc1 |
| 207000 | 0.95 | 129000 | 71700 | 3.05 | 0.24 | – | – | – | 36800 | – | CC(C)[C@H](NC(=O)COc1cccc2ccccc12)C(=O)N[C@@H](CC(=O)O)C(=O)CF |
| 10200 | 26.7 | 3720 | 48 | > 50 | > 100 | 46 | – | – | – | – | CC(C)[C@H](NC(=O)COc1cccc2ccccc12)C(=O)N[C@@H](CC(=O)O)C(=O)COc1ccc(C#N)cc1 |
| 35800 | 20.6 | 11900 | 769 | > 50 | 35.8 | 253 | – | – | – | – | CC(C)[C@H](NC(=O)COc1cccc2ccccc12)C(=O)N[C@@H](CC(=O)O)C(=O)COc1ccc(F)c(F)c1F |
| 179000 | 15.3 | 25300 | 2710 | 2.75 | 3 | 87700 | – | – | – | – | CC(C)[C@H](NC(=O)COc1cccc2ccccc12)C(=O)N[C@@H](CC(=O)O)C(=O)COc1c(Cl)cccc1Cl |
| 6930 | 24.9 | 1540 | 1120 | > 50 | 9.3 | 625 | – | – | – | – | CC(C)[C@H](NC(=O)COc1cccc2ccccc12)C(=O)N[C@@H](CC(=O)O)C(=O)COc1ccc(Oc2ccc(C(F)(F)F)cc2)cc1 |
| 52100 | 40 | 6680 | 10400 | > 50 | 20 | 27000 | – | – | – | – | CC(C)[C@H](NC(=O)COc1cccc2ccccc12)C(=O)N[C@@H](CC(=O)O)C(=O)COc1c(F)c(F)c(-c2c(F)c(F)c(F)c(F)c2F)c(F)c1F |
| 268000 | 6.25 | 77500 | 30200 | 2.17 | 4.5 | 78900 | – | – | – | – | CC(C)[C@H](NC(=O)COc1cccc2ccccc12)C(=O)N[C@@H](CC(=O)O)C(=O)COc1c(F)c(F)cc(F)c1F |
| 6460 | 16.2 | 1620 | 117 | 17 | > 100 | 86 | – | – | – | – | CC(C)[C@H](NC(=O)COc1cccc2ccccc12)C(=O)N[C@@H](CC(=O)O)C(=O)COc1ccc(F)c(F)c1 |
| 725000 | 11.5 | 52100 | 17000 | 2.15 | 10.6 | 56900 | – | – | – | – | CC(C)[C@H](NC(=O)COc1cccc2ccccc12)C(=O)N[C@@H](CC(=O)O)C(=O)COC(=O)c1c(Cl)cccc1Cl |
| 17800 | 12 | 2730 | 461 | > 50 | > 100 | 48 | – | – | – | – | CC(C)[C@H](NC(=O)COc1cccc2ccccc12)C(=O)N[C@@H](CC(=O)O)C(=O)COc1cccc(F)c1 |
| 9520 | 19 | 1900 | 668 | > 50 | 12.7 | 370 | – | – | – | – | CC(C)[C@H](NC(=O)COc1cccc2ccccc12)C(=O)N[C@@H](CC(=O)O)C(=O)COc1ccc(Oc2ccccc2)cc1 |
| 49000 | 19.7 | 12100 | 483 | 4.85 | > 100 | 1330 | – | – | – | – | CC(C)[C@H](NC(=O)COc1cccc2ccccc12)C(=O)N[C@@H](CC(=O)O)C(=O)COc1cc(F)ccc1F |
| 9240 | 15.9 | 2170 | 154 | 11.6 | > 100 | 106 | – | – | – | – | CC(C)[C@H](NC(=O)COc1cccc2ccccc12)C(=O)N[C@@H](CC(=O)O)C(=O)COc1cc(F)cc(F)c1 |
| 19200 | 11.2 | 3630 | 4260 | – | 14 | 2400 | – | – | – | 38 | CC(C)[C@H](NC(=O)COc1cccc2ccccc12)C(=O)N[C@@H](CC(=O)O)C(=O)COc1ccccc1 |
| 200000 | > 100 | 53900 | 9080 | 2.4 | 2.04 | 9980 | – | – | – | – | CC(C)[C@H](NC(=O)COc1cccc2ccccc12)C(=O)N[C@@H](CC(=O)O)C(=O)COc1c(F)cccc1F |
